We go through 75 compounds from publication PMC12040169 (PLOS Biology, 2025).

The structures appear in SMILES notation.

One series can be described thus: in vitro. To be noted: human, hela cells, % viability.
`CC(C)(C)c1ccc(NC(=O)N(CCN)Cc2c[nH]c(-c3ccccc3)n2)cc1` [CBK046297C]: the viability at 28.5 h, 10 µM was found to be 64.9%.

On to `Cc1ccc(NS(=O)(=O)c2cc3c(OC4CCNCC4)nccc3s2)cc1` [CBK046309C], for which the viability at 28.5 h, 10 µM came out at 96%.

Take `COc1ccc([C@@]23CC[C@@H](C(=O)Nc4ccc(C(F)(F)F)cn4)C[C@@H]2N(C)CC3)cc1OC` [CBK046310T]: the viability at 28.5 h, 10 µM came to 87.3%.

As for `NCC(=O)Nc1ccc(F)c(F)c1` [CBK046313], the viability at 28.5 h, 10 µM was 103%.

In the case of `NCC(=O)Nc1ccc(Cl)c(Cl)c1` [CBK046317], the viability at 28.5 h, 10 µM stood at 94.3%.

As for `CC(=O)NCc1ccc(C)n1C` [CBK046356], the viability at 28.5 h, 10 µM worked out at 106%.

On to `CC(C)(CC(=O)O)CC(=O)N1CCCC1c1nc(-c2ccccc2)c2ccccn12` (stereo not drawn) [CBK046399], for which the viability at 28.5 h, 10 µM stood at 98.8%.

As to `CCc1ccc(OCCNc2cc(N3CCN(CCO)CC3)ccc2[N+](=O)[O-])cc1` [CBK046496], the viability at 28.5 h, 10 µM was 91.7%.

Consider `CCOC(=O)CNC(=O)N1CCCC1c1nc(-c2ccccc2)c2ccccn12` (stereo not drawn) [CBK046502], for which the viability at 28.5 h, 10 µM was determined as 103%.

Take `Cc1ccc(-c2nc(C3CCCN3C(=O)C3CC3C(=O)O)n3ccccc23)cc1` (stereo not drawn) [CBK046559]: the viability at 28.5 h, 10 µM came to 79.8%.

For the compound `COC(=O)c1ccc(NC(=O)N2CCCC2c2nc(-c3ccccc3)c3ccccn23)cc1` (stereo not drawn) [CBK046725], the viability at 28.5 h, 10 µM came out at 102%.

With `Cc1ccccc1NC(=O)N1CCC2(CC1)NCCc1c2[nH]c2ccc(O)cc12` [CBK046904], the viability at 28.5 h, 10 µM was 91%.

In the case of `CC(C)NC(=O)N1CCCC1c1nc(-c2ccc(Cl)cc2)c2ccccn12` (stereo not drawn) [CBK046947], the viability at 28.5 h, 10 µM was found to be 84%.

On to `CC(C)NC(=O)N1CCCC2(C1)NCCc1c2[nH]c2ccccc12` (stereo not drawn) [CBK046952], for which the viability at 28.5 h, 10 µM was 86.7%.

Consider `CCC(C)(CC(=O)O)CC(=O)N1CCC2(C1)NCCc1c2[nH]c2ccccc12` (stereo not drawn) [CBK047003], for which the viability at 28.5 h, 10 µM came out at 88.5%.

In the case of `C/C(C(=O)O)=C(/C)C(=O)N1CCC2(CC1)NCCc1c2[nH]c2ccc(C)cc12` [CBK047026], the viability at 28.5 h, 10 µM turned out to be 100%.

For the compound `O=C(O)/C(Cl)=C(\Cl)C(=O)N1CCC2(CC1)OCCc1c2[nH]c2ccccc12` [CBK047035], the viability at 28.5 h, 10 µM turned out to be 85%.

`C[C@H](NC(=O)N1CCC2(CC1)NCCc1c2[nH]c2ccc(Cl)cc12)c1ccccc1` [CBK047046]: the viability at 28.5 h, 10 µM was found to be 90%.

On to `CCC(C)(CC(=O)O)CC(=O)N1CCC2(CC1)OCCc1c2[nH]c2ccccc12` (stereo not drawn) [CBK047051], for which the viability at 28.5 h, 10 µM was 102%.

For `Cc1ccc2[nH]c3c(c2c1)CCNC31CCN(C(=O)Nc2c(C)noc2C)CC1` [CBK047071], the viability at 28.5 h, 10 µM stood at 83.1%.

Take `COc1ccc2[nH]c3c(c2c1)CCOC31CCN(C(=O)N[C@@H](C)c2ccccc2)CC1` [CBK047114]: the viability at 28.5 h, 10 µM stood at 98.5%.

For the compound `O=C(NCCc1cccs1)N1CCC2(CC1)OCCc1c2[nH]c2ccccc12` [CBK047129], the viability at 28.5 h, 10 µM came to 85.4%.

As for `COc1ccc2[nH]c3c(c2c1)CCOC31CCN(C(=O)Nc2ccc(C(C)C)cc2)CC1` [CBK047154], the viability at 28.5 h, 10 µM was determined as 95.5%.

As for `O=C(O)C1CC1C(=O)N1CCC2(CC1)OCCc1c2[nH]c2ccccc12` (stereo not drawn) [CBK047167], the viability at 28.5 h, 10 µM was 89.2%.

`O=C(O)COCC(=O)N1CCC2(CC1)NC(=O)Cc1c2ccc2ccccc12` [CBK047168]: the viability at 28.5 h, 10 µM came out at 88.4%.

On to `O=C1Cc2cc3ccccc3cc2C2(CCN(C(=O)C3CCC3C(=O)O)CC2)N1` (stereo not drawn) [CBK047252], for which the viability at 28.5 h, 10 µM stood at 92.5%.

For `Cc1ccc2c(c1)CC(=O)NC21CCN(C(=O)C2CC2C(=O)O)CC1` (stereo not drawn) [CBK047258], the viability at 28.5 h, 10 µM worked out at 103%.

Regarding `CC(CC(=O)O)CC(=O)N1CCC2(CC1)NC(=O)Cc1ccccc12` (stereo not drawn) [CBK047281], the viability at 28.5 h, 10 µM is 95.3%.

Turning to `O=C1Cc2ccccc2C2(CCN(C(=O)Nc3c(F)cccc3F)CC2)N1` [CBK047296], the viability at 28.5 h, 10 µM was 89%.

In the case of `O=C1Cc2ccccc2C2(CCN(C(=O)c3cccc4cccc(C(=O)O)c34)CC2)N1` [CBK047313], the viability at 28.5 h, 10 µM is 93.2%.

As to `COc1ccc2c(c1)CC(=O)NC21CCN(C(=O)N[C@@H](C)c2ccccc2)CC1` [CBK047325], the viability at 28.5 h, 10 µM was determined as 92.4%.

`C=CCNC(=O)N1CCC2(CC1)OCCc1c2n(C)c2ccccc12` [CBK047354]: the viability at 28.5 h, 10 µM was determined as 84.8%.

With `CCOC(=O)c1ccc(NC(=O)N2CCC3(CC2)NC(=O)Cc2ccccc23)cc1` [CBK047362], the viability at 28.5 h, 10 µM was 107%.

For `CCOC(=O)c1[nH]c2ccccc2c1NS(=O)(=O)c1ccc(NC(C)=O)cc1` [CBK047411], the viability at 28.5 h, 10 µM amounted to 81.4%.

In the case of `CCOC(=O)c1[nH]c2ccccc2c1NS(=O)(=O)Cc1ccccc1` [CBK047413], the viability at 28.5 h, 10 µM came to 93.1%.

On to `CCOC(=O)c1[nH]c2ccccc2c1NS(=O)(=O)c1ccc(OC)c(OC)c1` [CBK047421], for which the viability at 28.5 h, 10 µM is 86%.

Turning to `CCOC(=O)c1[nH]c2ccccc2c1NS(=O)(=O)c1cccc(Cl)c1C` [CBK047423], the viability at 28.5 h, 10 µM came out at 88.9%.

Turning to `CCOC(=O)c1[nH]c2ccccc2c1NS(=O)(=O)c1ccc(C)c([N+](=O)[O-])c1` [CBK047427], the viability at 28.5 h, 10 µM turned out to be 97.6%.

As for `CCOC(=O)c1sc(NS(=O)(=O)c2cccc3cccnc23)nc1C` [CBK047443], the viability at 28.5 h, 10 µM turned out to be 91.6%.

On to `CCOC(=O)c1sc(NS(=O)(=O)Cc2ccccc2[N+](=O)[O-])nc1C` [CBK047458], for which the viability at 28.5 h, 10 µM is 98.5%.

As to `CNC(=O)CC1SC(NC2CC3C=CC2C3)=NC1=O` (stereo not drawn) [CBK047491], the viability at 28.5 h, 10 µM was found to be 90.7%.

In the case of `CC(=O)Nc1ccc(SC(C)c2nsc(NS(=O)(=O)c3ccc(-c4ccccc4)cc3)n2)cc1` (stereo not drawn) [CBK047508], the viability at 28.5 h, 10 µM came out at 91.5%.

With `O=C(Nc1ccc(F)c(F)c1)N[C@H]1CC[C@@]2(c3cccc(Br)c3)CCN(Cc3ccccc3)[C@H]2C1` [CBK047515], the viability at 28.5 h, 10 µM is 107%.

On to `COc1ccc([C@@]23CCC(NC(=O)Nc4ccccc4OC(F)F)C[C@@H]2N(C)CC3)cc1OC` (stereo partly drawn) [CBK047547T], for which the viability at 28.5 h, 10 µM is 97.9%.

In the case of `COc1ccc([C@@]23CCC(NC(=O)Nc4cc(C(F)(F)F)ccc4F)C[C@@H]2N(C)CC3)cc1OC` (stereo partly drawn) [CBK047552T], the viability at 28.5 h, 10 µM is 87.2%.

Turning to `CNC(=O)c1cc(-c2cccc(Cl)c2)oc1CC(=O)c1ccc(CN2CCCC2)cc1` [CBK047558], the viability at 28.5 h, 10 µM was 95.3%.

As to `Cc1ccc(-c2csc(CC#N)n2)cc1` [CBK047576], the viability at 28.5 h, 10 µM was determined as 79.3%.

On to `O=S(=O)(NCc1cccc(F)c1F)c1cc2c(N3CCNCC3)nccc2s1` [CBK047588C], for which the viability at 28.5 h, 10 µM came to 103%.

For `COc1ccc(Cn2nc(NS(=O)(=O)c3cn(C)cn3)c3ccccc32)cc1` [CBK048143], the viability at 28.5 h, 10 µM is 87.7%.

As to `Cc1nn(C)c(Cl)c1S(=O)(=O)Nc1nn(Cc2ccc(C#N)cc2)c2ccccc12` [CBK048185], the viability at 28.5 h, 10 µM was found to be 111%.

Take `Cc1ccc(Cn2nc(NC(=O)c3ccccc3)c3ccccc32)cc1` [CBK048213]: the viability at 28.5 h, 10 µM was 97.5%.

As to `Cc1ccc(Cn2nc(NC(=O)c3cccn3C)c3ccccc32)cc1` [CBK048214], the viability at 28.5 h, 10 µM was 97.4%.

As for `Cc1ccc(Cn2nc(NC(=O)C3CCCCC3)c3ccccc32)cc1` [CBK048217], the viability at 28.5 h, 10 µM turned out to be 96.5%.

For the compound `O=C(Nc1nn(Cc2ccc(Oc3ccccc3)cc2)c2ccccc12)c1ccno1` [CBK048224], the viability at 28.5 h, 10 µM came out at 97.8%.

For `CC(=O)Nc1nn(Cc2cc3c(cc2Cl)OCO3)c2ccccc12` [CBK048251], the viability at 28.5 h, 10 µM came out at 96.5%.

For `N#Cc1ccc(Cn2nc(NC(=O)c3ccco3)c3ccccc32)cc1` [CBK048260], the viability at 28.5 h, 10 µM was determined as 91.8%.

As to `COc1cccc(C(=O)Nc2nn(Cc3ccc(C(F)(F)F)cc3)c3ccccc23)c1` [CBK048273], the viability at 28.5 h, 10 µM amounted to 83.9%.

On to `COc1ccc(Cn2nc(NC(=O)OC(C)C)c3ccccc32)cc1` [CBK048404], for which the viability at 28.5 h, 10 µM stood at 106%.

Turning to `COCC(C)NC(=O)c1nn(-c2nc3ccccc3s2)c2ccccc12` (stereo not drawn) [CBK048488], the viability at 28.5 h, 10 µM came out at 92.6%.

Take `COc1ccc(NC(=O)c2nn(-c3nc4ccccc4o3)c3ccccc23)cc1` [CBK048492]: the viability at 28.5 h, 10 µM is 93.8%.

With `Cn1c(-c2ccc(CN3CCCC3)cc2)cc2onc(-c3cccnc3)c2c1=O` [CBK048501C], the viability at 28.5 h, 10 µM turned out to be 99.1%.

Take `O=C(NOCc1ccccc1)c1nn(-c2ncccn2)c2ccccc12` [CBK048503]: the viability at 28.5 h, 10 µM was determined as 93.1%.

With `Cc1cc(NC(=O)c2nn(-c3ncccn3)c3ccccc23)n(C)n1` [CBK048505], the viability at 28.5 h, 10 µM amounted to 92.3%.

Take `COc1ccc2nc(-n3nc(C(=O)NCc4ccncc4)c4ccccc43)sc2c1` [CBK048521]: the viability at 28.5 h, 10 µM came to 94.9%.

Regarding `CS(=O)(=O)Nc1nn(-c2ccc(NC(=O)c3ccno3)cc2)c2ccccc12` [CBK048591], the viability at 28.5 h, 10 µM was found to be 99.5%.

For the compound `O=c1[nH]c2cccc(O)c2o1` [CBK048613], the viability at 28.5 h, 10 µM stood at 90.9%.

As to `Cc1ccc2c(c1)c(NS(C)(=O)=O)nn2Cc1ccc(C#N)cc1` [CBK048643], the viability at 28.5 h, 10 µM was found to be 94.2%.

The series is the same for the next values; noted with them: human, hela cells, % viability, bulk resorufin, single well.
For the compound `CN(C)C(=O)c1ccc(Cn2nc(C(=O)Nc3nccs3)c3ccccc32)cc1` [CBK047701], the viability at 28.5 h, 10 µM stood at 95.4%.

For the compound `O=C(NC1CC1)c1nn(Cc2ccc(S(=O)(=O)N3CCCCC3)cc2)c2ccccc12` [CBK047820], the viability at 28.5 h, 10 µM was determined as 106%.

For the compound `Cc1ccc(Cn2nc(C(=O)NCCc3c[nH]c4ccccc34)c3ccccc32)cc1` [CBK047830], the viability at 28.5 h, 10 µM is 98.7%.

For the compound `Cc1ccc(Cn2nc(C(=O)NCC3COc4ccccc4O3)c3ccccc32)cc1` (stereo not drawn) [CBK047831], the viability at 28.5 h, 10 µM turned out to be 91.2%.

Regarding `Cc1ccc(Cn2nc(C(=O)Nc3nc4ccccc4s3)c3ccccc32)cc1` [CBK047837], the viability at 28.5 h, 10 µM was determined as 92.4%.

Turning to `Cc1ccc(Cn2nc(C(=O)Nc3cc(C)nn3C)c3ccccc32)cc1` [CBK047842], the viability at 28.5 h, 10 µM amounted to 77.9%.

For `Cc1ccc(Cn2nc(C(=O)Nc3cc(C)on3)c3ccccc32)cc1` [CBK047844], the viability at 28.5 h, 10 µM is 98.7%.

`Cc1ccc(Cn2nc(C(=O)Nc3ccc4c(c3)OCO4)c3ccccc32)cc1` [CBK047847]: the viability at 28.5 h, 10 µM was 87%.

As usually defined, the viability is a read-out of living cells in per cent, often relative to untreated cells.
